Patent US10711000B2 (Fronthera U.S. Pharmaceuticals LLC, priority 2018, dated 2020)
Read-outs that look alike come from different tables or passages of the source.

Molecular target: T1, Autotaxin (Homo sapiens, UniProt Q13822)
T1 construct: from tissue; host or cells: pooled human plasma
Assay: LPA formation in pooled human plasma (ex vivo autotaxin inhibition)
Type: biochemical
Conditions: 2 hours incubation
In short: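 Pooled human plasma incubated 2 h with various compound concentrations; LPA 18:2 and 20:4 quantified by LC/MS/MS (negative-ion MRM, LPA17:0 internal standard) after butanol extraction. Inhibition of LPA formation relative to untreated plasma; IC50 by non-linear regression.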

[1] = LPA 18:2 by LC/MS/MS, read-out: LPA formation (18:2) (IC50)
[2] = LPA 20:4 by LC/MS/MS, read-out: LPA formation (20:4) (IC50)

IC50 [1] [nM] | IC50 [2] [nM] | SMILES
100 to 500 | 100 to 500 | CCc1nn2ccc(N3CC4(CN(C(=O)[C@@H]5CCOC5)C4)C3)cc2c1N(C)c1nc(-c2ccc(F)cc2)c(C#N)s1 [Example 9, (R)-2-((2-ethyl-5-(6-(tetrahydrofuran-3-carbonyl)-2,6-diazaspiro[3.3]heptan-2-yl)pyrazolo[1,5-a]pyridin-3-yl)(methyl)amino)-4-(4-fluorophenyl)thiazole-5-carbonitrile]
≤ 100 | ≤ 100 | Cc1cc(N2CC3(CN(C(=O)[C@H]4CCOC4)C3)C2)cc2c(N(C)c3nc(-c4ccc(F)cc4)c(C#N)s3)c(C3CC3)nn12 [Example 78, (S)-2-((2-cyclopropyl-7-methyl-5-(6-(tetrahydrofuran-3-carbonyl)-2,6-diazaspiro[3.3]heptan-2-yl)pyrazolo[1,5-a]pyridin-3-yl)(methyl)amino)-4-(4-fluorophenyl)thiazole-5-carbonitrile]
> 1000 | > 1000 | CCc1nn2c(C)cc(N3CCC4(CCN(C)C4=O)CC3)cc2c1N(C)c1nc(-c2ccc(F)cc2)c(C#N)s1 [Example 50, 2-((2-ethyl-7-methyl-5-(2-methyl-1-oxo-2,8-diazaspiro[4.5]decan-8-yl)pyrazolo[1,5-a]pyridin-3-yl)(methyl)amino)-4-(4-fluorophenyl)thiazole-5-carbonitrile]
≤ 100 | 100 to 500 | CCc1nn2c(C)cc(N3CC4(CN(C(=O)C(O)CO)C4)C3)cc2c1N(C)c1nc(-c2ccc(F)cc2)c(C#N)s1 (centres unmarked) [Example 60, 2-((5-(6-(2,3-dihydroxypropanoyl)-2,6-diazaspiro[3.3]heptan-2-yl)-2-ethyl-7-methylpyrazolo[1,5-a]pyridin-3-yl)(methyl)amino)-4-(4-fluorophenyl)thiazole-5-carbonitrile]
≤ 100 | ≤ 100 | Cc1cc(N2CC3(CN(C(=O)C(C)(C)O)C3)C2)cc2c(N(C)c3nc(-c4ccc(F)cc4)c(C#N)s3)c(C3CC3)nn12 [Example 77, 2-((2-cyclopropyl-5-(6-(2-hydroxy-2-methylpropanoyl)-2,6-diazaspiro[3.3]heptan-2-yl)-7-methylpyrazolo[1,5-a]pyridin-3-yl)(methyl)amino)-4-(4-fluorophenyl)thiazole-5-carbonitrile]
≤ 100 | ≤ 100 | CCc1nn2c(C)cc(N3CC4(CN(C(=O)[C@@H]5CCOC5)C4)C3)cc2c1N(C)c1nc(-c2ccc(F)cc2)c(C#N)s1 [Example 40, (R)-2-((2-ethyl-7-methyl-5-(6-(tetrahydrofuran-3-carbonyl)-2,6-diazaspiro[3.3]heptan-2-yl)pyrazolo[1,5-a]pyridin-3-yl)(methyl)amino)-4-(4-fluorophenyl)thiazole-5-carbonitrile]
≤ 100 | ≤ 100 | CCc1nn2ccc(N3CCC4(CCN(C(=O)N5CC(O)C5)CC4)C3)cc2c1N(C)c1nc(-c2ccc(F)cc2)c(C#N)s1 [Example 17, 2-((2-ethyl-5-(8-(3-hydroxyazetidine-1-carbonyl)-2,8-diazaspiro[4.5]decan-2-yl)pyrazolo[1,5-a]pyridin-3-yl)(methyl)amino)-4-(4-fluorophenyl)thiazole-5-carbonitrile]
≤ 100 | ≤ 100 | CCc1nn2c(C)cc(N3CC4(CN(C(=O)N5CC(O)C5)C4)C3)cc2c1N(C)c1nc(-c2ccc(F)cc2)c(C#N)s1 [Example 28, 2-((2-ethyl-5-(6-(3-hydroxyazetidine-1-carbonyl)-2,6-diazaspiro[3.3]heptan-2-yl)-7-methylpyrazolo[1,5-a]pyridin-3-yl)(methyl)amino)-4-(4-fluorophenyl)thiazole-5-carbonitrile]
≤ 100 | ≤ 100 | CCc1nn2c(C)cc(N3CCC4(CN(C(=O)N5CC(O)C5)C4)C3)cc2c1N(C)c1nc(-c2ccc(F)cc2)c(C#N)s1 [Example 36, 2-((2-ethyl-5-(2-(3-hydroxyazetidine-1-carbonyl)-2,6-diazaspiro[3.4]octan-6-yl)-7-methylpyrazolo[1,5-a]pyridin-3-yl)(methyl)amino)-4-(4-fluorophenyl)thiazole-5-carbonitrile]
≤ 100 | ≤ 100 | CCc1nn2c(C)cc(N3CCC4(CN(C(=O)C5CCOCC5)C4)C3)cc2c1N(C)c1nc(-c2ccc(F)cc2)c(C#N)s1 [Example 43, 2-((2-ethyl-7-methyl-5-(2-(tetrahydro-2H-pyran-4-carbonyl)-2,6-diazaspiro[3.4]octan-6-yl)pyrazolo[1,5-a]pyridin-3-yl)(methyl)amino)-4-(4-fluorophenyl)thiazole-5-carbonitrile]

Second part, the compound before the results:

SMILES | IC50 [1] [nM] | IC50 [2] [nM]
CCc1nn2c(C)cc(N3CCC4(CN(C(=O)[C@H]5CCOC5)C4)C3)cc2c1N(C)c1nc(-c2ccc(F)cc2)c(C#N)s1 [Example 51, (S)-2-((2-ethyl-7-methyl-5-(2-(tetrahydrofuran-3-carbonyl)-2,6-diazaspiro[3.4]octan-6-yl)pyrazolo[1,5-a]pyridin-3-yl)(methyl)amino)-4-(4-fluorophenyl)thiazole-5-carbonitrile] | ≤ 100 | ≤ 100
CCc1nn2c(C)cc(N3CC4(CCN(C(=O)C(C)(C)O)C4)C3)cc2c1N(C)c1nc(-c2ccc(F)cc2)c(C#N)s1 [Example 53, 2-((2-ethyl-5-(6-(2-hydroxy-2-methylpropanoyl)-2,6-diazaspiro[3.4]octan-2-yl)-7-methylpyrazolo[1,5-a]pyridin-3-yl)(methyl)amino)-4-(4-fluorophenyl)thiazole-5-carbonitril] | ≤ 100 | ≤ 100
CCc1nn2ccc(N3CCN(CC(=O)N4CC[C@H](O)C4)CC3)cc2c1N(C)c1nc(-c2ccc(F)cc2)c(C#N)s1 [Example 2, (S)-2-((2-ethyl-5-(4-(2-(3-hydroxypyrrolidin-1-yl)-2-oxoethyl)piperazin-1-yl)pyrazolo[1,5-a]pyridin-3-yl)(methyl)amino)-4-(4-fluorophenyl)thiazole-5-carbonitrile] | ≤ 100 | ≤ 100
CCc1nn2c(C)cc(N3CCC4(CN(C(=O)C5(O)CC5)C4)C3)cc2c1N(C)c1nc(-c2ccc(F)cc2)c(C#N)s1 [Example 54, 2-((2-ethyl-5-(2-(1-hydroxycyclopropane-1-carbonyl)-2,6-diazaspiro[3.4]octan-6-yl)-7-methylpyrazolo[1,5-a]pyridin-3-yl)(methyl)amino)-4-(4-fluorophenyl)thiazole-5-carbonitrile] | 500 to 1000 | 500 to 1000
CCc1nn2c(C)cc(N3CC4C(C3)C4NC(=O)[C@H]3CCOC3)cc2c1N(C)c1nc(-c2ccc(F)cc2)c(C#N)s1 (stereo partly drawn) [Example 64, (3S)—N-(3-(3-((5-cyano-4-(4-fluorophenyl)thiazol-2-yl)(methyl)amino)-2-ethyl-7-methylpyrazolo[1,5-a]pyridin-5-yl)-3-azabicyclo[3.1.0]hexan-6-yl)tetrahydrofuran-3-carboxamide] | 100 to 500 | 100 to 500
CCn1nc2nc(C)c(N3CC4(CN(C(=O)C(C)(C)O)C4)C3)cc2c1N(C)c1nc(-c2ccc(F)cc2)c(C#N)s1 [Compound 120, 2-((2-ethyl-5-(6-(2-hydroxy-2-methylpropanoyl)-2,6-diazaspiro[3.3]heptan-2-yl)-6-methyl-2H-pyrazolo[3,4-b]pyridin-3-yl)(methyl)amino)-4-(4-fluorophenyl)thiazole-5-carbonitrile] | ≤ 100 | ≤ 100
Cc1cc(N2CC3(CN(C(=O)C4(O)CCOCC4)C3)C2)cc2c(N(C)c3nc(-c4ccc(F)cc4)c(C#N)s3)c(C3CC3)nn12 [Example 90, 2-((2-cyclopropyl-5-(6-(4-hydroxytetrahydro-2H-pyran-4-carbonyl)-2,6-diazaspiro[3.3]heptan-2-yl)-7-methylpyrazolo[1,5-a]pyridin-3-yl)(methyl)amino)-4-(4-fluorophenyl)thiazole-5-carbonitrile] | ≤ 100 | ≤ 100
CCc1nn2ccc(N3CCC4(CCN(C(=O)N5CC(O)C5)C4)C3)cc2c1N(C)c1nc(-c2ccc(F)cc2)c(C#N)s1 (centres unmarked) [Example 20, 2-((2-ethyl-5-(7-(3-hydroxyazetidine-1-carbonyl)-2,7-diazaspiro[4.4]nonan-2-yl)pyrazolo[1,5-a]pyridin-3-yl)(methyl)amino)-4-(4-fluorophenyl)thiazole-5-carbonitrile] | ≤ 100 | ≤ 100
CCc1nn2c(C)cc(N3CC4(CCN(C(=O)C5CCOCC5)C4)C3)cc2c1N(C)c1nc(-c2ccc(F)cc2)c(C#N)s1 [Example 44, 2-((2-ethyl-7-methyl-5-(6-(tetrahydro-2H-pyran-4-carbonyl)-2,6-diazaspiro[3.4]octan-2-yl)pyrazolo[1,5-a]pyridin-3-yl)(methyl)amino)-4-(4-fluorophenyl)thiazole-5-carbonitrile] | ≤ 100 | ≤ 100
